What was measured:
[1] = biological target: T1, recombinant hCNT2 (Homo sapiens, UniProt O43868); assay: Uptake by recombinant transporter in transiently transfected HeLa cells; format: cell-based; conditions: 10 μM, 100 μM dilazep
T1 construct: expressed in transfected cells; host or cells: HeLa cells, transient transfection with pcDNA3-hCNT2 (subcloned from pMH15)
T1 sequence (O43868 1-658): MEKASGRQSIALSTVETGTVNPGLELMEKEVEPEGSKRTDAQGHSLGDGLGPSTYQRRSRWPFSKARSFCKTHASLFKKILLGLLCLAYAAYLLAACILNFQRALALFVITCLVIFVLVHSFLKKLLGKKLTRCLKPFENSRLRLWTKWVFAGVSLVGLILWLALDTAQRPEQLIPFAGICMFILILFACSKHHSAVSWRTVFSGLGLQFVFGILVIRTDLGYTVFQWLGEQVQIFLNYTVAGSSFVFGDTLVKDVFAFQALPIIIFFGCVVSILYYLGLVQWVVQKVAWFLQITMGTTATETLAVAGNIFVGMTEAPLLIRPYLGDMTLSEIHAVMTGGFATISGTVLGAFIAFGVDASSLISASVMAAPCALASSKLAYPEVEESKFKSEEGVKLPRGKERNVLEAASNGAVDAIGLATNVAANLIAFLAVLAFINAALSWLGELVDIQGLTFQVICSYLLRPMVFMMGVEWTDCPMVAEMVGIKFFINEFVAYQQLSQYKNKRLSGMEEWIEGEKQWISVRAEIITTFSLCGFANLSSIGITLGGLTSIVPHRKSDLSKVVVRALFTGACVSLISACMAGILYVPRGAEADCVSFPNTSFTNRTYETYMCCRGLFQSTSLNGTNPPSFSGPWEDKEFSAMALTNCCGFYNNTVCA
Experimental: (§1) Transport assays were conducted in the presence of the equilibrative transport inhibitor, 100 μM dilazep and either in the presence ( ? ) or absence (▴) of […].sodium, and compared to HeLa cells transiently transfected with the empty vector control plasmic (▾)
(§2) Expression plasmids encoding recombinant hCNT1 and hCNT2 are prepared using conventional methods. […] The expression vectors are separately introduced into actively proliferating HeLa cells, following conventional methods. See, e.g., Fang et al (1996).
(§3) Recombinant hCNT1 and hCNT2 were separately introduced into HeLa cells by transient transfection of pcDNA3 plasmids containing the coding sequences of the relevant nucleoside transporter protein. […] Uptake of 10 μM [:H]troxacitabine was not mediated either by hCNT1 or by hCNT2.

[2] = biological target: T2, recombinant hCNT1 (Homo sapiens, UniProt O00337); assay: as above; format: cell-based; conditions: 10 μM, 100 μM dilazep
T2 construct: expressed in transfected cells; host or cells: HeLa cells, transient transfection with pcDNA3-hCNT1 (subcloned from pMHK2)
T2 sequence (O00337 1-649): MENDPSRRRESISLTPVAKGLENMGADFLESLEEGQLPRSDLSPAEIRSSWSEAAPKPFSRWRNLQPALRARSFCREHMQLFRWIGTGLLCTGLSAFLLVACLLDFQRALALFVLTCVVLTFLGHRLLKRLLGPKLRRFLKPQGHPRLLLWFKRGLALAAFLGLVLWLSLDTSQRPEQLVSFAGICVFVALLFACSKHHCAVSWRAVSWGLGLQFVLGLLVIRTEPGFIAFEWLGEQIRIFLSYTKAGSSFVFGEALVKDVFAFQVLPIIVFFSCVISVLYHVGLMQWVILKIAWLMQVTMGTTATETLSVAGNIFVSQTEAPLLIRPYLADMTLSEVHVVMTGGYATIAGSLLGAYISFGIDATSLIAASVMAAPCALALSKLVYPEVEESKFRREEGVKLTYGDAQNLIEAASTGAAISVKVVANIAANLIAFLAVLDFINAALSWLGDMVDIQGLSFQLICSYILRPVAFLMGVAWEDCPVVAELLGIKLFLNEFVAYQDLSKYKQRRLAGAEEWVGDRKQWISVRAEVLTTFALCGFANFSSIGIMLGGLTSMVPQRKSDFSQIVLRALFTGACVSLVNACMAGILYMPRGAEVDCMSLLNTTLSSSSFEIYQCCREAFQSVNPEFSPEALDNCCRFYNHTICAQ
Experimental: as §1, §2, §3

uptake mediated by hCNT2 [1]: not mediated
uptake mediated by hCNT1 [2]: not mediated
Compound: Nc1ccn([C@@H]2CO[C@H](CO)O2)c(=O)n1 [Troxacitabine, troxacitabine]

Reference: patent US20050256034A1, “Dioxolane analogs for improved inter-cellular delivery” (priority 2000, published 2005)
